Experimental findings from ChEMBL document CHEMBL1133608 (J Med Chem, 2000) are described below.

Experiment [1] addresses T1, D(2) dopamine receptor (Rattus norvegicus, UniProt P61169, S194A). Nature of the experiment: biochemical. The format is cell-based, C6 glioma.
Experiment [2] has as its target T2, D(2) dopamine receptor (Rattus norvegicus, UniProt P61169, S197A). Nature of the experiment: biochemical. In kind it is cell-based, C6 glioma.
The target in experiment [3] is T1, D(2) dopamine receptor. Nature of the experiment: biochemical. The format is cell-based, C6 glioma. The source holds these as a separate data set.
Experiment [4] concerns the target D(2) dopamine receptor (Rattus norvegicus, UniProt P61169). Nature of the experiment: biochemical. In kind it is cell-based, C6 glioma.
The target of experiment [5] is T1, D(2) dopamine receptor. Nature of the experiment: In vitro affinity at mutant D2 receptor (S194A) in C6 (glioma) cell membranes. The format is cell-based.
Experiment [6] has as its target T2, D(2) dopamine receptor. Nature of the experiment: In vitro affinity at mutant D2 receptor (S197A) in C6 (glioma) cell membranes. In kind it is cell-based.
Experiment [7] addresses D(2) dopamine receptor (Rattus norvegicus, UniProt P61169, S193A). Nature of the experiment: In vitro affinity at mutant D2 receptor (S193A) in C6 (glioma) cell membranes. The format is cell-based.

pKd: −log10 of the molar value.

D(2) dopamine receptor (Rattus norvegicus, UniProt P61169), sequence (P61169 whole entry): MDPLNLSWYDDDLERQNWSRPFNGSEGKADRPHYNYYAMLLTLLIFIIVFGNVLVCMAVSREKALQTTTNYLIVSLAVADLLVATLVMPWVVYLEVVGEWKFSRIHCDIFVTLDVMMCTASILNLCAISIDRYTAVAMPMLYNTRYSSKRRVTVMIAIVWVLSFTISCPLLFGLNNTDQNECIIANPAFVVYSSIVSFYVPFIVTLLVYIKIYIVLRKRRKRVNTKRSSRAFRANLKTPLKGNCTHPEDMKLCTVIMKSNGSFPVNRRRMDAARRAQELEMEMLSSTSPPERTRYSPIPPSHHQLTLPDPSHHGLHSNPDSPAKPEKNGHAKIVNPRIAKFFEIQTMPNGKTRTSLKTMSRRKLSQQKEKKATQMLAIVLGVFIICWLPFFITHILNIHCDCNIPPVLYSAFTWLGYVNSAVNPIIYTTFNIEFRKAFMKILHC
T2 sequence (P61169 whole entry S197A): as the sequence (P61169 whole entry) above, with S197A counted along it
T1 sequence (P61169 whole entry S194A): as the sequence (P61169 whole entry) above, with S194A counted along it
D(2) dopamine receptor (Rattus norvegicus, UniProt P61169, S193A), sequence (P61169 whole entry S193A): as the sequence (P61169 whole entry) above, with S193A counted along it

Turning to `N[C@@H]1CCc2cc(O)c(O)cc2C1`, the pKd at D(2) dopamine receptor [1] was 4.77; at D(2) dopamine receptor [2] it was 6.92; at D(2) dopamine receptor [3] it was 6.35; on D(2) dopamine receptor [4], 6.68.

For `CCCN1Cc2c(C)cccc2[C@@H]2c3cc(O)c(O)cc3CC[C@H]21`, the pKd is 5.89 on D(2) dopamine receptor [1]; 6.40 on D(2) dopamine receptor [5]; 6.52 on D(2) dopamine receptor [4]; 6.52 at D(2) dopamine receptor [4] (c6 glioma); 6.15 on D(2) dopamine receptor [6]; 5.89 on D(2) dopamine receptor [7].

As for `CC(C)C[C@H]1C(=O)N2CCC[C@H]2[C@]2(O)O[C@](NC(=O)[C@@H]3C=C4c5cccc6[nH]c(Br)c(c56)C[C@H]4N(C)C3)(C(C)C)C(=O)N12` [BROMOCRIPTINE], the pKd at D(2) dopamine receptor [1] is 8.10; at D(2) dopamine receptor [2] it was 8.40; on D(2) dopamine receptor [3], 7.77; at D(2) dopamine receptor [4] it was 8.10.

As to `CCN(CC)C(=O)N[C@H]1C=C2c3cccc4[nH]cc(c34)C[C@H]2N(C)C1` [LISURIDE], the pKd at D(2) dopamine receptor [1] is 9.52; at D(2) dopamine receptor [2], 9.40; on D(2) dopamine receptor [3] it was 8.64; at D(2) dopamine receptor [4], 9.22.

As for `COc1cc(CCN)ccc1O`, the pKd at D(2) dopamine receptor [1] is 3.60; at D(2) dopamine receptor [2], 3.65; at D(2) dopamine receptor [3], 4.06; at D(2) dopamine receptor [4] it was 4.03.

Turning to `CN1C[C@H](C(N)=O)C=C2c3cccc4[nH]cc(c34)C[C@H]21`, the pKd at D(2) dopamine receptor [1] is 8.74; at D(2) dopamine receptor [5] it was 8.55; at D(2) dopamine receptor [4], 9.21; on D(2) dopamine receptor [4] (c6 glioma) it was 9.21; at D(2) dopamine receptor [6], 9.00; at D(2) dopamine receptor [7], 8.55.
